How the values were obtained:
ragweed [1] = assay: Test C preemergence; format: in vivo, Ambrosia artemisiifolia
In short: (§1)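 Visual injury score, 0–100 (100 = complete control), taken 10 days after treatment relative to untreated controls. Pre: directed spray onto soil over sown seeds. Post: foliar spray at one- to two-leaf stage, 2–10 cm. Solvent/surfactant formulation; loam–sand soil; greenhouse.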

ragweed [2] = assay: Test C postemergence; format: in vivo, Ambrosia artemisiifolia; details: 10 days, 0 to 100 scale (0 no effect, 100 complete control)
In short: as §1

kochia [3] = assay: Test C postemergence; format: in vivo, Bassia scoparia; details: 10 days, 0 to 100 scale (0 no effect, 100 complete control)
In short: as §1

barnyardgrass [4] = assay: Test C postemergence; format: in vivo, Echinochloa crusgalli; details: 10 days, 0 to 100 scale (0 no effect, 100 complete control)
In short: as §1

oat, wild [5] = assay: Test C preemergence; format: in vivo, Avena fatua
In short: as §1

corn [6] = assay: Test C postemergence; format: in vivo, Zea mays; details: 10 days, 0 to 100 scale (0 no effect, 100 complete control)
In short: as §1

ryegrass, Italian [7] = assay: Test C postemergence; format: in vivo, Lolium multiflorum; details: 10 days, 0 to 100 scale (0 no effect, 100 complete control)
In short: as §1

barnyardgrass [8] = assay: Test C preemergence; format: in vivo, Echinochloa crusgalli
In short: as §1

green foxtail [9] = assay: Test C postemergence; format: in vivo, Setaria viridis; details: 10 days, 0 to 100 scale (0 no effect, 100 complete control)
In short: as §1

green foxtail [10] = assay: Test C preemergence; format: in vivo, Setaria viridis
In short: as §1

oat, wild [11] = assay: Test C postemergence; format: in vivo, Avena fatua; details: 10 days, 0 to 100 scale (0 no effect, 100 complete control)
In short: as §1

blackgrass [12] = assay: Test C preemergence; format: in vivo, Alopecurus myosuroides
In short: as §1

wheat [13] = assay: Test C postemergence; format: in vivo, Triticum aestivum; details: 10 days, 0 to 100 scale (0 no effect, 100 complete control)
In short: as §1

rice = assay: Test D flooded paddy test; format: in vivo, Oryza sativa; details: 250 g ai/ha, applied to paddy water, visual rating after 13 to 14 days, scale 0 to 100 (0 no effect, 100 complete control)
In short: (§2)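 Compounds go straight into paddy water over 2-leaf plants in pots flooded to 3 cm. Greenhouse holding lasts 13 to 14 days. Injury is scored by eye against controls from 0 (none) to 100 (complete control).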

pigweed, palmer [14] = assay: Test C preemergence; format: in vivo, Amaranthus palmeri
In short: as §1

soybean [15] = assay: Test C preemergence; format: in vivo, Glycine max
In short: as §1

wheat [16] = assay: Test C preemergence; format: in vivo, Triticum aestivum
In short: as §1

sedge, umbrella = assay: Test D flooded paddy test; format: in vivo, Cyperus difformis; details: 250 g ai/ha, applied to paddy water, visual rating after 13 to 14 days, scale 0 to 100 (0 no effect, 100 complete control)
In short: as §2

galium = assay: Test C postemergence; format: in vivo, Galium aparine; details: 10 days, 0 to 100 scale (0 no effect, 100 complete control)
In short: as §1

horseweed = assay: Test C postemergence; format: in vivo, Erigeron canadensis; details: 10 days, 0 to 100 scale (0 no effect, 100 complete control)
In short: as §1

blackgrass [17] = assay: Test C postemergence; format: in vivo, Alopecurus myosuroides; details: 10 days, 0 to 100 scale (0 no effect, 100 complete control)
In short: as §1

kochia [18] = assay: Test C preemergence; format: in vivo, Bassia scoparia
In short: as §1

soybean [19] = assay: Test C postemergence; format: in vivo, Glycine max; details: 10 days, 0 to 100 scale (0 no effect, 100 complete control)
In short: as §1

pigweed, palmer [20] = assay: Test C postemergence; format: in vivo, Amaranthus palmeri; details: 10 days, 0 to 100 scale (0 no effect, 100 complete control)
In short: as §1

corn [21] = assay: Test C preemergence; format: in vivo, Zea mays
In short: as §1

ducksalad = assay: Test D flooded paddy test; format: in vivo, Heteranthera limosa; details: 250 g ai/ha, applied to paddy water, visual rating after 13 to 14 days, scale 0 to 100 (0 no effect, 100 complete control)
In short: as §2

barnyardgrass [22] = assay: Test D flooded paddy test; format: in vivo, Echinochloa crus-galli; details: 250 g ai/ha, applied to paddy water, visual rating after 13 to 14 days, scale 0 to 100 (0 no effect, 100 complete control)
In short: as §2

ryegrass, Italian [23] = assay: Test C preemergence; format: in vivo, Lolium multiflorum
In short: as §1

[24] = 500 g ai/ha, preemergence, 0 to 100 scale (0 no effect, 100 complete control)
[25] = Preemergence, 125 g ai/ha, 0 to 100 scale, 0 no effect, 100 complete control

COC(C)c1ncn(-c2ccc(C)c(C(=O)N3CC(C)Oc4c(Cl)cccc43)c2)n1 (mixture of isomers) [Compound 359]
Ragweed plant response rating (ragweed [1]; [24]): 100
Plant response rating, Ragweed (ragweed [1]; [25]): 0
Plant response rating, Ragweed (ragweed [2]; 500 g ai/ha, postemergence): 80
Plant response rating, Ragweed (ragweed [2]; Postemergence, 125 g ai/ha): 60
Plant response rating, Kochia (kochia [3]; 500 g ai/ha, postemergence): 80
Plant response rating, Kochia (kochia [3]; Postemergence, 125 g ai/ha): 50
Plant response rating, Barnyardgrass (barnyardgrass [4]; 500 g ai/ha, postemergence): 90
Plant response rating, Barnyardgrass (barnyardgrass [4]; Postemergence, 125 g ai/ha): 30
Oat, Wild plant response rating (oat, wild [5]; [24]): 90
Plant response rating, Oat, Wild (oat, wild [5]; [25]): 90
Plant response rating, Corn (corn [6]; 500 g ai/ha, postemergence): 80
Plant response rating, Corn (corn [6]; Postemergence, 125 g ai/ha): 40
Plant response rating, Ryegrass, Italian (ryegrass, Italian [7]; 500 g ai/ha, postemergence): 100
Plant response rating, Ryegrass, Italian (ryegrass, Italian [7]; Postemergence, 125 g ai/ha): 90
Barnyardgrass plant response rating (barnyardgrass [8]; [24]): 100
Plant response rating, Barnyardgrass (barnyardgrass [8]; [25]): 100
Plant response rating, Foxtail, Green (green foxtail [9]; 500 g ai/ha, postemergence): 80
Plant response rating, Foxtail, Green (green foxtail [9]; Postemergence, 125 g ai/ha): 50
Foxtail, Green plant response rating (green foxtail [10]; [24]): 100
Plant response rating, Foxtail, Green (green foxtail [10]; [25]): 100
Plant response rating, Oat, Wild (oat, wild [11]; 500 g ai/ha, postemergence): 90
Plant response rating, Oat, Wild (oat, wild [11]; Postemergence, 125 g ai/ha): 60
Blackgrass plant response rating (blackgrass [12]; [24]): 100
Plant response rating, Blackgrass (blackgrass [12]; [25]): 80
Plant response rating, Wheat (wheat [13]; 500 g ai/ha, postemergence): 90
Plant response rating, Wheat (wheat [13]; Postemergence, 125 g ai/ha): 30
Plant response rating, Rice (Flood) (rice): 10
Pigweed, Palmer plant response rating (pigweed, palmer [14]; [24]): 100
Plant response rating, Pigweed, Palmer (pigweed, palmer [14]; [25]): 90
Soybean plant response rating (soybean [15]; [24]): 100
Plant response rating, Soybean (soybean [15]; [25]): 80
Wheat plant response rating (wheat [16]; [24]): 80
Plant response rating, Wheat (wheat [16]; [25]): 30
Plant response rating, Sedge, Umbrella (Flood) (sedge, umbrella): 65
Plant response rating, Galium (galium; 500 g ai/ha, postemergence): 100
Plant response rating, Galium (galium; Postemergence, 125 g ai/ha): 100
Plant response rating, Horseweed (horseweed; 500 g ai/ha, postemergence): 90
Plant response rating, Horseweed (horseweed; Postemergence, 125 g ai/ha): 70
Plant response rating, Blackgrass (blackgrass [17]; 500 g ai/ha, postemergence): 100
Plant response rating, Blackgrass (blackgrass [17]; Postemergence, 125 g ai/ha): 60
Kochia plant response rating (kochia [18]; [24]): 100
Plant response rating, Kochia (kochia [18]; [25]): 100
Plant response rating, Soybean (soybean [19]; 500 g ai/ha, postemergence): 100
Plant response rating, Soybean (soybean [19]; Postemergence, 125 g ai/ha): 100
Plant response rating, Pigweed, Palmer (pigweed, palmer [20]; 500 g ai/ha, postemergence): 100
Plant response rating, Pigweed, Palmer (pigweed, palmer [20]; Postemergence, 125 g ai/ha): 60
Corn plant response rating (corn [21]; [24]): 30
Plant response rating, Corn (corn [21]; [25]): 20
Plant response rating, Ducksalad (Flood) (ducksalad): 60
Plant response rating, Barnyardgrass (Flood) (barnyardgrass [22]): 15
Ryegrass, Italian plant response rating (ryegrass, Italian [23]; [24]): 100
Plant response rating, Ryegrass, Italian (ryegrass, Italian [23]; [25]): 90

— US20260262643A1, “HERBICIDAL BENZOXAZINES” (FMC CORPORATION, priority 2022, published 2026)
